From PubChem BioAssay (NCI)
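Values below derive from 48-hour exposures of cells grown in 96-well plates, with endpoints linearly interpolated between the two concentrations bracketing the appropriate inhibition level. GI50: concentration for 50% inhibition of growth. TGI denotes the concentration required for complete inhibition of growth.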

How the values were obtained:
Experiment in all cases: growth of human tumour cells (NCI), 48 h
[1] = test system: PC-3 prostate
[2] = test system: KM12 colon
[3] = test system: OVCAR-5 ovarian
[4] = test system: MOLT-4 leukemia
[5] = test system: OVCAR-4 ovarian
[6] = test system: NCI-H23 lung
[7] = test system: CCRF-CEM leukemia
[8] = test system: ACHN renal
[9] = test system: NCI-H460 lung
[10] = test system: HT29 colon
[11] = test system: MALME-3M melanoma
[12] = test system: UO-31 renal
[13] = test system: SF-268 CNS
[14] = test system: LOX IMVI melanoma
[15] = test system: HS 578T breast
[16] = test system: 786-0 renal
[17] = test system: HCC-2998 colon
[18] = test system: U251 CNS
[19] = test system: HOP-62 NSCLC
[20] = test system: SW-620 colon
[21] = test system: T-47D breast
[22] = test system: A498 renal
[23] = test system: NCI/ADR-RES ovarian
[24] = test system: SNB-75 CNS
[25] = test system: SK-MEL-5 melanoma
[26] = test system: SNB-19 CNS
[27] = test system: HOP-92 NSCLC
[28] = test system: IGROV1 ovarian
[29] = test system: HCT-116 colon
[30] = test system: HCT-15 colon
[31] = test system: RPMI-8226 leukemia
[32] = test system: A549 NSCLC
[33] = test system: MDA-MB-435
[34] = test system: COLO 205 colon
[35] = test system: HL-60(TB) leukemia
[36] = test system: NCI-H522 lung
[37] = test system: BT-549 breast
[38] = test system: OVCAR-8 ovarian
[39] = test system: SK-MEL-2 melanoma
[40] = test system: MDA-MB-231 breast
[41] = test system: NCI-H226 lung
[42] = test system: UACC-62 melanoma
[43] = test system: SF-295 CNS
[44] = test system: EKVX NSCLC
[45] = test system: MCF7 breast
[46] = test system: RXF 393 renal
[47] = test system: SN12C renal
[48] = test system: M14 melanoma
[49] = test system: SR leukemia
[50] = test system: SK-OV-3 ovarian
[51] = test system: TK-10 renal
[52] = test system: UACC-257 melanoma
[53] = test system: SF-539 CNS
[54] = test system: K-562 leukemia
[55] = test system: DU-145 prostate
[56] = test system: CAKI-1 renal
[57] = test system: SK-MEL-28 melanoma

`O=C(O)c1ccc(-n2c(=O)n(-c3cccc(C(F)(F)F)c3)c(=O)c3cc(-c4ccc(F)cc4F)ccc32)cc1` showed a GI50 [1] of 2.86 µM, a TGI [1] of 8.76 µM and a GI50 [2] of 2.59 µM. For the same molecule, the TGI [2] was 7.49 µM, the GI50 [3] was 3.61 µM and the TGI [3] was 28.5 µM. For the same molecule, the GI50 [4] was 1.44 µM, the TGI [4] was 6.16 µM and the GI50 [5] was 2.82 µM. The TGI [5] was 35 µM, the GI50 [6] was 1.56 µM and the TGI [6] was 5.88 µM. The GI50 [7] was 3.32 µM, the TGI [7] was 20.9 µM and the GI50 [8] was 2.67 µM. For the same molecule, the TGI [8] was 10.6 µM, the GI50 [9] was 1.58 µM and the TGI [9] was 8.21 µM. For the same molecule, the GI50 [10] was 3.58 µM, the TGI [10] was 13.7 µM and the GI50 [11] was 1.78 µM. For the same molecule, the TGI [11] was 5.42 µM, the GI50 [12] was 2.54 µM and the TGI [12] was 9.57 µM. For the same molecule, the GI50 [13] was 2.37 µM, the TGI [13] was 15 µM and the GI50 [14] was 1.73 µM. For the same molecule, the TGI [14] was 3.53 µM, the GI50 [15] was 2.12 µM and the TGI [15] was 6.98 µM. For the same molecule, the GI50 [16] was 1.83 µM, the TGI [16] was 3.63 µM and the GI50 [17] was 3.03 µM. The TGI [17] was 9.71 µM, the GI50 [18] was 2.06 µM and the TGI [18] was 10.7 µM. It also gave a GI50 [19] of 2.04 µM, a TGI [19] of 4.66 µM and a GI50 [20] of 2.03 µM. It also gave a TGI [20] of 4.96 µM, a GI50 [21] of 1.79 µM and a TGI [21] of 6.21 µM. It also gave a GI50 [22] of 0.524 µM, a TGI [22] of 1.87 µM and a GI50 [23] of 2.63 µM. The TGI [23] was 15.2 µM, the GI50 [24] was 1.93 µM and the TGI [24] was 7.02 µM. The GI50 [25] was 0.49 µM, the TGI [25] was 1.88 µM and the GI50 [26] was 2.03 µM. The TGI [26] was 31.1 µM, the GI50 [27] was 0.525 µM and the TGI [27] was 3.54 µM. The GI50 [28] was 2.91 µM, the TGI [28] was 20.5 µM and the GI50 [29] was 1.1 µM. The TGI [29] was 2.39 µM, the GI50 [30] was 1.04 µM and the TGI [30] was 3 µM. For the same molecule, the GI50 [31] was 1.7 µM, the TGI [31] was 7.05 µM and the GI50 [32] was 2.96 µM. The TGI [32] was 13.5 µM, the GI50 [33] was 2.31 µM and the TGI [33] was 7.62 µM. It also gave a GI50 [34] of 2.85 µM, a TGI [34] of 7.41 µM and a GI50 [35] of 0.323 µM. For the same molecule, the TGI [35] was 11.1 µM, the GI50 [36] was 0.576 µM and the TGI [36] was 3.98 µM. It also gave a GI50 [37] of 1.54 µM, a TGI [37] of 3.11 µM and a GI50 [38] of 2.03 µM. For the same molecule, the TGI [38] was 8.43 µM, the GI50 [39] was 1.04 µM and the TGI [39] was 2.91 µM. The GI50 [40] was 2.18 µM, the TGI [40] was 6.71 µM and the GI50 [41] was 1.72 µM. For the same molecule, the TGI [41] was 4.8 µM, the GI50 [42] was 0.582 µM and the TGI [42] was 2.51 µM. The GI50 [43] was 1.82 µM, the TGI [43] was 3.82 µM and the GI50 [44] was 2.53 µM. The TGI [44] was 8.53 µM, the GI50 [45] was 2 µM and the TGI [45] was 9.29 µM. The GI50 [46] was 1.48 µM, the TGI [46] was 3.47 µM and the GI50 [47] was 1.91 µM. It also gave a TGI [47] of 8.29 µM, a GI50 [48] of 1.58 µM and a TGI [48] of 3.72 µM. For the same molecule, the GI50 [49] was 0.555 µM, the TGI [49] was 4.07 µM and the GI50 [50] was 1.45 µM. For the same molecule, the TGI [50] was 4.12 µM, the GI50 [51] was 3.86 µM and the TGI [51] was 8.4 µM. It also gave a GI50 [52] of 1.6 µM, a TGI [52] of 4.96 µM and a GI50 [53] of 2.2 µM. It also gave a TGI [53] of 8.17 µM, a GI50 [54] of 0.335 µM and a TGI [54] of 7.74 µM. The GI50 [55] was 3.37 µM, the TGI [55] was 14.2 µM and the GI50 [56] was 2.11 µM. For the same molecule, the TGI [56] was 6.96 µM, the GI50 [57] was 1.85 µM and the TGI [57] was 6.79 µM.
